Like-named read-outs stand apart in the source and are kept apart here.
What was measured:
[1] = Initial oxygen scavenger screening in laboratory boiler at 200-220° F. (Table I)
Protocol: A small laboratory boiler was used to screen a number of potential oxygen scavengers. Oxygen saturated feed water which contained sodium hydroxide was used as the feed. The residence time for the treatment chemical was approximately 11 minutes. The boiler water temperature was maintained at between 200°-220° F. In these tests, 2% hydroquinone was used as the catalyst.
INITIAL SCREENING AT 200-220° F.

[2] = Metal passivation in experimental firerod boiler (Table IV); conditions: 600 p.s.i., 48 hour test
Source text: Metal passivation studies were undertaken using an experimental firerod boiler under the following test conditions:
10 boiler water concentrations
40 ppm M alkalinity (as CaCO3)
A blank containing no oxygen scavenger was followed by test runs with hydrazine, carbohydrazide, and sodium sulfite.
*Tubes ranked by appearance of metal surface.

[3] = 227-239° F.; for Oxygen scavenging activity relative to hydrazine: Table II; for % O2 Removal / Final O2: initial O2 40 ppb
Protocol: A second more extensive group of potential oxygen scavengers were compared, again using a small laboratory boiler and oxygen saturated feed water containing sodium hydroxide. […] The hydrazine salts among this group are no less toxic than hydrazine and therefore were eliminated from further study. […] In addition, the carbohydrazide was preferred because it is a solid at room temperature and could therefore be used in dry formulations.
INITIAL SCREENING AT 227-239° F.

[4] = Carbohydrazide low temperature hydrolysis (Table V); assay type: physicochemical; conditions: for ppm Hydrazine: 100 ppm hydrazine control, pH 10.25
Protocol: Low temperature hydrolysis studies of carbohydrazide were carried out using reagent grade carbohydrazide containing approximately 2.7±0.1% hydrazine as an impurity. A 1,000 ppm carbohydrazide solution and a 100 ppm hydrazine solution were prepared with deaerated, deionized water. Half of the carbohydrazide solution was adjusted to pH 10.2 with sodium hydroxide and the other half was left at its original pH of 6.9. The solutions were poured into Nessler tubes to overflowing and sealed with stoppers fitted with hypodermic needles to allow pressure release with minimum air contact. Four samples of both of the carbohydrazide solutions and two samples of the hydrazine control were stored at varying temperatures for varying periods of time, all as reported in Table V below.

[5] = Carbohydrazide vs. hydrazine in oxygen removal, once-through apparatus (Table III); conditions: initial O2 7.4 ppm, 227-239° F., pH about 10.5
Protocol: A once-through experimental apparatus for simulating boiler water transport was utilized in this example. Water temperature in this example was maintained at about 227°-239° F. and pH at about 10.5.

Solubility in water = assay type: physicochemical

Compound	Oxygen scavenging activity relative to hydrazine [3]	% O2 Removal [3] [%]	Final O2 [3] [ppb]	other results
O=S([O-])[O-].[Na+].[Na+] [Na2 SO3, sodium sulfite, reference compound]				Final O2 ([1]; dosage 400 ppb, pH 9.65, initial O2 40 ppb): .005 ppb; Tube Rank (by appearance of metal surface) ([2]; dosage 20-40 ppm residual): 2
NN.O=S(=O)(O)O [Hydrazine sulfate, Hydrazinium sulfate, reference compound]	activity comparable to hydrazine	87.5	5	Final O2 ([1]; dosage 500 ppb, pH 10.5, initial O2 40 ppb, 2% hydroquinone catalyst): 10 ppb
Di (methylformal)diazine		0	40	
NNC=O [Formohydrazide]		0	40	
O=CNNC=O [Diformohydrazide]		0	40	
NN [Hydrazine, hydrazine, reference compound]		87.5	5	ppm Hydrazine ([4]; 120° F., 6 days): 86.6 ppm; ppm Hydrazine ([4]; 180° F., 6 days): 87.6 ppm; ppm Hydrazine ([4]; Room Temp. (77° F.), 6 days): 89.8 ppm; ppm Hydrazine ([4]; time 0): 97.4 ppm; Loss of initial hydrazine concentration ([4]; hydrazine control, after 6 days): approximately 10%; % O2 Removal ([5]; ppm scavenger/ppm O2 0.1/1): 15.4%; Final O2 ([5]; ppm scavenger/ppm O2 0.1/1): 6.26 ppm; % O2 Removal ([5]; ppm scavenger/ppm O2 0.9/1): 70.5%; Final O2 ([5]; ppm scavenger/ppm O2 0.9/1): 2.18 ppm; % O2 Removal ([5]; ppm scavenger/ppm O2 10.0/1): 99.2%; Final O2 ([5]; ppm scavenger/ppm O2 10.0/1): 0.06 ppm; Tube Rank (by appearance of metal surface) ([2]; dosage 2 ppm): 3
O=C(O)NNC(=O)O [Disodiumdihydrazodicarboxylate]	activity comparable to hydrazine	75	10	
COC(=O)NNC(=O)OC [Dimethyldihydrazodicarboxylate]		50	20	
NN.NN.O=S(O)O [Hydrazinium sulfite, reference compound]	activity comparable to hydrazine		5	
NNC(=O)C(=O)NN [Oxalic dihydrazide]				Solubility in water (Table II) (Solubility in water): Insoluble In Water

From patent US4269717A, “Boiler additives for oxygen scavenging” (priority 1980, dated 1981)
